The assay concerns P388 leukemia ip, CD2F1 mice, survival T/C. In words: NCI In Vivo Anticancer Drug Screen. Data for tumor model P388 Leukemia (intraperitoneal) in CD2F1 (CDF1) mice. To be noted: endpoint: median survival time, higher = longer survival. An outline of the steps: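 Mice carrying the transplanted tumor received test compound or vehicle. Survival was recorded in each group, and the value is the treated-group measurement divided by that of the vehicle-treated control group.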

The mark [1] stands for this setting: dose: 12.5 mg/kg/injection, schedule: Q01DX009 (ip), vehicle: water.
Setting [2] is: dose: 25.0 mg/kg/injection, schedule: Q01DX009 (ip), vehicle: water.
Where [3] appears, read: dose: 50.0 mg/kg/injection, schedule: Q01DX009 (ip), vehicle: water.
Where [4] appears, read: dose: 60.0 mg/kg/injection, schedule: Q01DX005 (ip), vehicle: saline with Tween-80.
The mark [5] stands for this setting: dose: 120.0 mg/kg/injection, schedule: Q01DX005 (ip), vehicle: saline with Tween-80.
Setting [6] is: dose: 240.0 mg/kg/injection, schedule: Q01DX005 (ip), vehicle: saline with Tween-80.
Where [7] appears, read: dose: 50.0 mg/kg/injection, schedule: Q01DX005 (ip), vehicle: Klucel (hydroxypropylcellulose) (HPC).
[8] abbreviates: dose: 100.0 mg/kg/injection, schedule: Q01DX005 (ip), vehicle: Klucel (hydroxypropylcellulose) (HPC).
Setting [9] is: dose: 12.5 mg/kg/injection, schedule: Q01DX009 (ip), vehicle: saline.
Where [10] appears, read: dose: 25.0 mg/kg/injection, schedule: Q01DX009 (ip), vehicle: saline.
The mark [11] stands for this setting: dose: 50.0 mg/kg/injection, schedule: Q01DX009 (ip), vehicle: saline.

Drawing on PubChem BioAssay AID330 (DTP/NCI, 2004), this text covers T/C for 22 compounds.

Several values for one entry are separate records, joined by “and”; a condition that tells them apart may be missing. Identical values can stand only once. Inconclusive results and toxic doses are left out. Bridge positions count the residues as written; N and C are the ends. Peptide text beside a SMILES is read from it. I, II: the chains in the order shown.

`N=Nc1c(OC(=O)Nc2ccccc2)[nH]c2c(Cl)cc(Cl)cc12`: the T/C (dose: 50.0 mg/kg/injection, schedule: Q01DX005 (ip), vehicle: saline with Tween-80) was 100 % of control; the T/C (dose: 100.0 mg/kg/injection, schedule: Q01DX005 (ip), vehicle: saline with Tween-80) was 100 % of control; the T/C (dose: 200.0 mg/kg/injection, schedule: Q01DX005 (ip), vehicle: saline with Tween-80) was 98 % of control.

Consider `CC(/C=N/NC1=NCCN1)=N/NC1=NCCN1`, for which the T/C by setting is: (dose: 50.0 mg/kg/injection, schedule: Q01DX005 (ip), vehicle: saline) 102 % of control; (dose: 100.0 mg/kg/injection, schedule: Q01DX005 (ip), vehicle: saline) 98 % of control; (dose: 200.0 mg/kg/injection, schedule: Q01DX005 (ip), vehicle: saline) 99 % of control.

`COc1ccc(CN2CCCNCC2)cc1`: the T/C under setting [1] is 93 % of control; the T/C under setting [2] is 100 % of control; the T/C under setting [3] was 102 % of control; the T/C (dose: 100.0 mg/kg/injection, schedule: Q01DX009 (ip), vehicle: water) was 93 % of control.

Consider `Cn1c(=S)[nH]c2sc3c(c2c1=O)CCCCC3`, for which the T/C by setting is: under setting [4], 101 % of control; under setting [5], 97 % of control; under setting [6], 90 % of control.

Regarding `CC(=O)OCC12CC(c3ccoc3)OC3CCC4C(=O)OC(CC1C)C4(C)C32` (stereo not drawn), the T/C reads like this: (dose: 5.25 mg/kg/injection, schedule: Q01DX005 (ip), vehicle: Klucel (hydroxypropylcellulose) (HPC)) 106 % of control; (dose: 10.5 mg/kg/injection, schedule: Q01DX005 (ip), vehicle: Klucel (hydroxypropylcellulose) (HPC)) 95 % of control; (dose: 21.0 mg/kg/injection, schedule: Q01DX005 (ip), vehicle: Klucel (hydroxypropylcellulose) (HPC)) 100 % of control; (dose: 42.0 mg/kg/injection, schedule: Q01DX005 (ip), vehicle: Klucel (hydroxypropylcellulose) (HPC)) 93 % of control.

Turning to `COc1ccccc1C(O)(c1ccccc1OC)C1(O)CCN(C)CC1`, the T/C under setting [7] is 94 % of control and the T/C under setting [8] is 95 % of control.

Take `C1=Nc2ccccc2N=Cc2ccccc2NCCNc2ccccc21`: the T/C is 98 % of control (dose: 6.25 mg/kg/injection, schedule: Q01DX009 (ip), vehicle: saline); 101 % of control under setting [9]; 92 % of control under setting [10].

For the compound `Cc1nnc(C)s1`, the T/C (dose: 50.0 mg/kg/injection, schedule: Q01DX009 (ip), vehicle: Klucel (hydroxypropylcellulose) (HPC)) was 102 % of control and 106 % of control and 98 % of control; the T/C (dose: 100.0 mg/kg/injection, schedule: Q01DX009 (ip), vehicle: Klucel (hydroxypropylcellulose) (HPC)) was 114 % of control and 96 % of control and 97 % of control; the T/C (dose: 200.0 mg/kg/injection, schedule: Q01DX009 (ip), vehicle: Klucel (hydroxypropylcellulose) (HPC)) is 101 % of control and 106 % of control; the T/C (dose: 600.0 mg/kg/injection, schedule: Q01DX009 (ip), vehicle: Klucel (hydroxypropylcellulose) (HPC)) was 106 % of control.

Turning to `COc1ccc(CC2c3cc(OC)c(OC)cc3CCN2C(C)=O)cc1OC` (stereo not drawn), the T/C runs as follows: (dose: 3.0 mg/kg/injection, schedule: Q01DX005 (ip), vehicle: saline with Tween-80) 99 % of control; (dose: 6.0 mg/kg/injection, schedule: Q01DX005 (ip), vehicle: saline with Tween-80) 102 % of control; (dose: 12.0 mg/kg/injection, schedule: Q01DX005 (ip), vehicle: saline with Tween-80) 95 % of control.

Consider `COc1cccc2c1C(=O)c1c(O)c3c(c(O)c1C2=O)C[C@@](O)(/C(C)=N/NS(C)(=O)=O)C[C@@H]3OC1CC(N)C(O)C(C)O1` (stereo partly drawn), for which the T/C reads like this: (dose: 3.13 mg/kg/injection, schedule: Q01DX009 (ip), vehicle: water) 157 % of control; (dose: 6.25 mg/kg/injection, schedule: Q01DX009 (ip), vehicle: water) 164 % of control and 166 % of control; under setting [1], 183 % of control and 187 % of control; under setting [10], 166 % of control; under setting [2], 117 % of control and 201 % of control; under setting [11], 193 % of control. The T/C runs as follows: under setting [3], 99 % of control; (dose: 100.0 mg/kg/injection, schedule: Q01DX009 (ip), vehicle: saline) 283 % of control; (dose: 200.0 mg/kg/injection, schedule: Q01DX009 (ip), vehicle: saline) 108 % of control.

As to `CC1(C)CN(C2CCCCC2)CN2C1OCC2(C)C` (stereo not drawn), the T/C (dose: 80.0 mg/kg/injection, schedule: Q01DX009 (ip), vehicle: saline with Tween-80) is 117 % of control.

With `C[N+]1=P(C)(C)N=P(C)(C)[N+](C)=P(C)(C)N=P1(C)C`, the T/C is 95 % of control under setting [9]; 95 % of control under setting [10]; 116 % of control and 95 % of control under setting [11].

As to `COc1ccc2c(c1)CSCC2O` (stereo not drawn), the T/C by setting is: (dose: 50.0 mg/kg/injection, schedule: Q01DX009 (ip), vehicle: other) 95 % of control; (dose: 100.0 mg/kg/injection, schedule: Q01DX009 (ip), vehicle: other) 100 % of control; (dose: 200.0 mg/kg/injection, schedule: Q01DX009 (ip), vehicle: other) 96 % of control.

Turning to `O=C1c2ccccc2C(=O)N1CN1C(=O)c2ccccc2C1=O`, the T/C by setting is: (dose: 25.0 mg/kg/injection, schedule: Q01DX009 (ip), vehicle: saline with Tween-80) 95 % of control; (dose: 50.0 mg/kg/injection, schedule: Q01DX009 (ip), vehicle: saline with Tween-80) 115 % of control and 90 % of control; (dose: 100.0 mg/kg/injection, schedule: Q01DX009 (ip), vehicle: saline with Tween-80) 90 % of control; (dose: 200.0 mg/kg/injection, schedule: Q01DX009 (ip), vehicle: saline with Tween-80) 100 % of control.

Turning to `CC(C)NCC(O)COc1cccc2ccccc12` (stereo not drawn), the T/C was 97 % of control (dose: 4.0 mg/kg/injection, schedule: Q01DX009 (ip), vehicle: Klucel (hydroxypropylcellulose) (HPC)); 98 % of control (dose: 8.0 mg/kg/injection, schedule: Q01DX009 (ip), vehicle: Klucel (hydroxypropylcellulose) (HPC)); 100 % of control (dose: 16.0 mg/kg/injection, schedule: Q01DX009 (ip), vehicle: Klucel (hydroxypropylcellulose) (HPC)); 95 % of control (dose: 32.0 mg/kg/injection, schedule: Q01DX009 (ip), vehicle: Klucel (hydroxypropylcellulose) (HPC)); 113 % of control (dose: 64.0 mg/kg/injection, schedule: Q01DX009 (ip), vehicle: Klucel (hydroxypropylcellulose) (HPC)).

`COc1ccc2ccc3c(c2c1)C(=O)C(CC(N)=O)C3` (stereo not drawn): the T/C runs as follows: (dose: 12.5 mg/kg/injection, schedule: Q01DX009 (ip), vehicle: distilled water + Tween-80) 97 % of control; (dose: 25.0 mg/kg/injection, schedule: Q01DX009 (ip), vehicle: distilled water + Tween-80) 93 % of control; (dose: 50.0 mg/kg/injection, schedule: Q01DX009 (ip), vehicle: distilled water + Tween-80) 92 % of control; (dose: 200.0 mg/kg/injection, schedule: Q01DX009 (ip), vehicle: distilled water + Tween-80) 93 % of control.

With `CC(NC(=O)C(N)CSSCC(N)C(=O)NC(C)C(=O)O)C(=O)O` (stereo not drawn) (I: H-Cys-Ala-OH / II: H-Cys-Ala-OH; disulfide I:1-II:1; configuration not given here), the T/C is 100 % of control under setting [7]; 104 % of control under setting [8]; 110 % of control (dose: 200.0 mg/kg/injection, schedule: Q01DX005 (ip), vehicle: Klucel (hydroxypropylcellulose) (HPC)).

For the compound `CC1CCC2(CC1)CC(=O)N(N1CCOCC1)C(=O)C2`, the T/C is 99 % of control (dose: 60.0 mg/kg/injection, schedule: Q01DX005 (ip), vehicle: suspension in saline); 99 % of control (dose: 120.0 mg/kg/injection, schedule: Q01DX005 (ip), vehicle: suspension in saline); 102 % of control (dose: 240.0 mg/kg/injection, schedule: Q01DX005 (ip), vehicle: suspension in saline).

Take `COC(=O)/C(C#N)=C/c1ccco1`: the T/C by setting is: under setting [7], 98 % of control; under setting [8], 98 % of control.

Regarding `CC(C)=CCCC(C)C1=C(O)C(=O)C(C)=CC1=O` (stereo not drawn), under “dose: 12.5 mg/kg/injection, schedule: Q01DX005 (ip), vehicle: Klucel (hydroxypropylcellulose) (HPC)”, the T/C is 108 % of control.

With `CC(=O)OC1CCN(C)CC1CCl` (stereo not drawn), the T/C is 110 % of control under setting [9]; 105 % of control under setting [10]; 105 % of control and 114 % of control under setting [11].

As to `Oc1cc(Br)ccc1/C=N/Nc1ccccn1`, the T/C runs as follows: under setting [4], 90 % of control; under setting [5], 96 % of control; under setting [6], 101 % of control.
